The text below walks through data of ChEMBL document CHEMBL1201862, “PubChem BioAssay data set” (2004).

The structures appear in SMILES notation.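 Protocol summary: plate cells (96-well), add compound at 5 concentrations, incubate 48 h, interpolate endpoints linearly. GI50 marks 50% less growth.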 The source made the active and inactive calls. Cut-off read from the data, not from the text of the source: active = GI50 up to about 1.1 µM and inactive = higher. A value given as a limit tells only on which side of the number the result lay.

Holding throughout (assay): inhibition of tumour cell growth, NCI panel, 48 h
Assay [1] relates to HOP-62.
Assay [2] relates to IGROV-1.
Assay [3] deals with SK-MEL-28.
The test system of assay [4] is HOP-92.
In assay [5] the test system is HCC 2998.
Assay [6] relates to OVCAR-8.
Assay [7] relates to SK-OV-3.
Assay [8] has as its system SNB-19.
Assay [9] concerns HL-60.
Assay [10] relates to EKVX.
Assay [11] deals with SK-MEL-5.
In assay [12] the test system is MDA-N.
The test system of assay [13] is BT-549.
The subject of assay [14] is UO-31.
Assay [15] relates to SNB-75.
Assay [16] relates to KM12.
Assay [17] concerns SF-295.
Assay [18] concerns SK-MEL-2.
In assay [19] the test system is HCT-116.
The subject of assay [20] is CAKI-1.

On to `Cc1cc(/N=C2\C=C(Nc3cc(C)on3)C(=O)c3ccccc32)no1`, for which the GI50 in assay [1] is > 61.1 µM (inactive); in assay [2], 33.1 µM (inactive); in assay [3], 60.5 µM (inactive); in assay [4] it was 19 µM (inactive); in [5] it was > 100 µM (inactive); in [6] it was 37.3 µM (inactive). The GI50 in assay [7] was 77.8 µM (inactive); in [8], 61 µM (inactive); in assay [9] it was > 100 µM (inactive); in [10], > 66.2 µM (inactive); in assay [11] it was 1.82 µM (inactive); in [12] it was 1.96 µM (inactive). Also, the GI50 in [13] was 27.5 µM (inactive); in [14] it was 43.7 µM (inactive); in assay [15] it was 31.6 µM (inactive); in assay [16], > 71.8 µM (inactive); in assay [17], 46.5 µM (inactive); in assay [18] it was 17.1 µM (inactive). Besides, the GI50 is 53.7 µM (inactive) in assay [19] and > 85.9 µM (inactive) in assay [20].

`CC1OC(OC2CC(O)(C(=O)CO)Cc3c(O)c4c(c(O)c32)C(=O)c2ccccc2C4=O)CC(N)C1O` (stereo not given): the GI50 in assay [1] was < 0.01 µM (active); in assay [2], 0.12 µM (active); in assay [3] it was 0.0573 µM (active); in assay [4] it was < 0.0338 µM (active); in assay [5], < 0.01 µM (active); in [6] it was 0.0171 µM (active). In addition, the GI50 in assay [7] is 0.0109 µM (active); in assay [8], < 0.01 µM (active); in assay [9], < 0.01 µM (active); in assay [10], 0.158 µM (active); in assay [11], < 0.0105 µM (active); in [12], 0.0652 µM (active). The GI50 is 0.171 µM (active) in assay [13]; 0.0232 µM (active) in assay [14]; < 0.0137 µM (active) in assay [15]; 0.0168 µM (active) in assay [16]; < 0.01 µM (active) in assay [17]; 0.0387 µM (active) in assay [18]. Moreover, the GI50 in assay [19] and in assay [20] was < 0.01 µM (active) in each case.

Regarding `O=C(CCN1CCCC1)c1ccc(Oc2ccc(F)cc2)cc1`, the GI50 in [1] is > 100 µM (inactive); in assay [2], 33 µM (inactive); in assay [3] it was > 100 µM (inactive); in assay [4] it was 15 µM (inactive); in assay [5] it was 45.1 µM (inactive); in assay [6], > 100 µM (inactive). Moreover, the GI50 was > 100 µM (inactive) in assay [7]; > 100 µM (inactive) in assay [8]; 16 µM (inactive) in [9]; 93.3 µM (inactive) in assay [10]; 44.8 µM (inactive) in [11]; 58.3 µM (inactive) in assay [12]. Further, the GI50 in [13] was 74 µM (inactive); in assay [14] it was 50.9 µM (inactive); in assay [15] it was 47.8 µM (inactive); in [16], 29.9 µM (inactive); in assay [17] it was 90.2 µM (inactive); in assay [18] it was > 100 µM (inactive). Moreover, the GI50 in [19] was 60.8 µM (inactive); in assay [20] it was 16.3 µM (inactive).

In the case of `COc1ccc2c(-c3csc(-c4c[nH]c5ccccc45)n3)c[nH]c2c1`, the GI50 is 16.8 µM (inactive) in assay [1]; 5.58 µM (inactive) in [2]; 14.6 µM (inactive) in assay [3]; 7.46 µM (inactive) in assay [4]; 4.03 µM (inactive) in assay [5]; 7.85 µM (inactive) in [6]. Also, the GI50 in assay [7] is 17.7 µM (inactive); in assay [8] it was 13.2 µM (inactive); in [9] it was 4.66 µM (inactive); in [10] it was 1.37 µM (inactive); in [11] it was 7.18 µM (inactive); in [12], 8.73 µM (inactive). Moreover, the GI50 was 11.8 µM (inactive) in assay [13]; 5.9 µM (inactive) in assay [14]; 22 µM (inactive) in [15]; 3.21 µM (inactive) in assay [16]; 9.64 µM (inactive) in [17]; 14.5 µM (inactive) in [18]. Besides, the GI50 was 3.68 µM (inactive) in [19] and 12.1 µM (inactive) in assay [20].
